The values below are quoted from earlier work in patent publication US11260068B2, “Long-circulating liposome modified with c(RGD-ACP-K)” (BEIJING GREATSUN BIO-PHARM. TECH. CO., LTD, priority 2017, dated 2022).

“Also recorded” adds a separate entry of the source. Starred links: 1 amine or outer side, 2 acyl side, 3 side chain; linkers in the order of their positions; H or OH if unused. Non-standard residues stand in square brackets, D forms with d. Residues, ends and D or L forms follow the SMILES beside them. X1 = O=C(C1CCC(N[*:1])C1)[*:2]

For this series, the target named is T1, integrin αvβ3 on the surface of U87MG cells (Homo sapiens, UniProt P05106+P06756).
T1 construct: U87MG glioblastoma cells expressing integrin αvβ3; endogenous in cells; host or cells: U87MG glioblastoma cells
As to conditions: reference c(RGDyK).

T1 sequence (P06756 31-889 limits assumed): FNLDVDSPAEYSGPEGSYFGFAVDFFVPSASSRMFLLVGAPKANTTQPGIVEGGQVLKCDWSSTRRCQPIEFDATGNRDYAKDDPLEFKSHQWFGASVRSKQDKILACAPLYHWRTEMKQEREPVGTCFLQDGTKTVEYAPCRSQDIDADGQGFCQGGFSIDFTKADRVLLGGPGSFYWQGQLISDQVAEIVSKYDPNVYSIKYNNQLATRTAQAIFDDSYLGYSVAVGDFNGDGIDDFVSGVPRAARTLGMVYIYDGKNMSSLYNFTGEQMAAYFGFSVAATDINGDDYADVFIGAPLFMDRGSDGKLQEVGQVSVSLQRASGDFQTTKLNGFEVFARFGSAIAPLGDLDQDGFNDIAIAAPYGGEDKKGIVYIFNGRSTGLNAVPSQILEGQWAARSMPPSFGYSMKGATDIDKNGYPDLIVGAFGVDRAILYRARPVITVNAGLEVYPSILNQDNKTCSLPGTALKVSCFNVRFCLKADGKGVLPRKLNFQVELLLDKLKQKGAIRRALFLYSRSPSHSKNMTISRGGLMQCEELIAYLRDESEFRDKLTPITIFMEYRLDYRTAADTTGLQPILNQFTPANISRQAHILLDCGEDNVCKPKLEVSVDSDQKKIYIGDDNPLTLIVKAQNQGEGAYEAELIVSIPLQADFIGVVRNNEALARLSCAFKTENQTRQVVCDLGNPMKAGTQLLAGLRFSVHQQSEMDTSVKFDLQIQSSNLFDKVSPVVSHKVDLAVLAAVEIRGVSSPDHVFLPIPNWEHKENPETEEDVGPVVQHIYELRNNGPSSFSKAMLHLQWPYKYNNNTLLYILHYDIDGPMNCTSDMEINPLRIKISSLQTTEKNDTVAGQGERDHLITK
T1 sequence (P06756 891-1048 partner limits assumed): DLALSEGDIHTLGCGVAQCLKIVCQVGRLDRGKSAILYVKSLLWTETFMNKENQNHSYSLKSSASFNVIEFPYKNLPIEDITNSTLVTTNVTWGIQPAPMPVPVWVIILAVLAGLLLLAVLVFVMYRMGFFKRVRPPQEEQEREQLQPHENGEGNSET
T1 sequence (P05106 27-788): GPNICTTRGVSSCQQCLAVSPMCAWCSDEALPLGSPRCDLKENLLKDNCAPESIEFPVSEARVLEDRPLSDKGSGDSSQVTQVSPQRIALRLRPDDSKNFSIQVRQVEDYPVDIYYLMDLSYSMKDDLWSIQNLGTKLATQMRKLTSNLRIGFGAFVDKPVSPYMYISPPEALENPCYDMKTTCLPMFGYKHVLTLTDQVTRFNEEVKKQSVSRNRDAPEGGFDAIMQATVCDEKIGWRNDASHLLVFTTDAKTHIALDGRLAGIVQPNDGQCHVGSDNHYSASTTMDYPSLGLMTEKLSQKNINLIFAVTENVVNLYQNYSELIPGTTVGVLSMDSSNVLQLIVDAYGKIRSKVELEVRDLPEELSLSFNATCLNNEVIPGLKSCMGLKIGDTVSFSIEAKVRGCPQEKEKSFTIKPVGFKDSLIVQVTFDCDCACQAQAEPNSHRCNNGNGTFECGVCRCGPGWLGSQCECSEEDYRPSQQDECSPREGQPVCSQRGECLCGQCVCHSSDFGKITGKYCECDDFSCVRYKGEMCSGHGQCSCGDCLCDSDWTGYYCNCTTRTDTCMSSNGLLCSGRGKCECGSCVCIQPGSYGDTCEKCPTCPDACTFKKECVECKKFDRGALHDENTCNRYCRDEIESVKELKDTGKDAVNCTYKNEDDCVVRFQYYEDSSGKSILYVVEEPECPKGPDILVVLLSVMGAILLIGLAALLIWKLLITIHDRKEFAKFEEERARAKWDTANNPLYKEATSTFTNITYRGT

Consider `N=C(N)NCCC[C@@H]1NC(=O)[C@H](CCCCN)NC(=O)C2CCC(C2)NC(=O)[C@H](CC(=O)O)NC(=O)CNC1=O` (stereo partly drawn) [c(RGD-ACP-K), cyclo[RGD-(1S,3R)-3-aminocyclopentane-1-carboxylic acid]] (cyclo(RGD[X1]K)), for which the “binding to integrin αvβ3 on the surface of U87MG cells” value is “superior to that of the cyclic peptide c(RGDyK); also recorded: significantly higher than that of c(RGD-ACH-K)”. As to “cyclic [c(RGD-ACH-K), cyclic [RGD-(1S,3R)-3-aminocyclohexanecarboxylic acid]]”, the “binding to integrin αvβ3 on the surface of U87MG cells” value is given as “superior to that of the cyclic peptide c(RGDyK)”.
